From US8435929B2, “1-aminocyclopropane carboxylic acid as a fruit thinner” (Valent BioSciences Corporation, priority 2009, dated 2013)

Legend:
PF-27 peaches = assay: Field thinning study, ACC and ABA, fruit set of PF-27 peaches; type: in vivo, peach; conditions: 1000 ppm, application at shuck split
Description: Application of ACC alone at shuck split reduced fruit set in a dose dependent manner (Table 10).

cotton cotyledons = assay: Cotton cotyledon bioassay, ethylene production; type: in vivo
Description: For laboratory and growth chamber studies, deionized ultra-pure water was used in preparing solutions. Spray solutions were used as soon as possible after mixing. All spray solutions were amended with spray adjuvants as appropriate. A cotton cotyledon bioassay was used in the laboratory to study the effects of ACC or ethephon on induction of ethylene. Ten day old cotton plants with fully expanded cotyledons were used. Sprays were made to the upper (adaxial) surface of the leaves and the plants were then incubated in growth cabinets at the temperatures indicated. The cotyledons were excised at the times indicated and placed in sealed plastic vials. Headspace ethylene samples were measured on a Hewlett Packard 5890 gas chromatograph equipped with a packed Haysep T column (Alltech, Deerfield, Ill.) and a flame ionization detector.
Selected characteristics of ACC conversion to ethylene (i.e. dose response, time course, and temperature effect) were assessed to determine whether the relative consistence of ACC as a stone fruit and apple thinner was related to performance as an ethylene producer. In these bioassays, ACC solutions were applied to cotton cotyledons by a hand sprayer at the doses indicated and all spray solutions contained 0.05% (v/v) L-77.
In the first study, the effect of ACC dose sprays on ethylene produced by cotton cotyledons was determined. (Table 16). Cotton plants were sprayed with solution (ACC at 1, 10, 25, 50, 100, 250, 500, or 1000 ppm) and the cotyledons were excised 6 or 24 h after spraying and incubated in sealed tubes for 4 h. Ethylene levels were determined production was assayed.
In the second study, the time course of ethylene production following application of 500 mg/liter ACC or ethephon was determined (Table 17).
In the third study, the effect of temperature on ethylene production following ACC or ethephon application was determined (Table 18). The incubation of the plants following spraying and the incubation of the detached leaves were performed at 25 and 35° C.

Babygold #5 peach = assay: Field thinning study, fruit set of Babygold #5 peach; type: in vivo; conditions: rate not given, 10 mm fruitlet timing
Babygold #5 peaches = assay: Scaffold gummosis rating of Babygold #5 peaches; type: in vivo, peach
Description: Gummosis is a physiological stress response in which sap oozes from fractures in tree bark and often leads to tree decline. Use of 2-chloroethylphosphonic acid as a stone fruit thinning has been limited because it can stimulate severe incidences of gummosis of stone fruit.

| SMILES | Crop load (percent) of treated trees compared to the untreated control (PF-27 peaches) | Percent fruit set (PF-27 peaches) | Ethylene production (cotton cotyledons; 200 ppm, 24 h after application, incubated at 25 C) | Ethylene production (cotton cotyledons; 200 ppm, 24 h after application, incubated at 35 C) | Ethylene production (cotton cotyledons; 500 ppm, 1 h following spray application, 25 C (time course)) | Ethylene production (cotton cotyledons; 500 ppm, 4 h following spray application, 25 C (time course)) | Ethylene production (cotton cotyledons; 500 ppm, 15 h following spray application, 25 C (time course)) | Ethylene production (cotton cotyledons; 500 ppm, 24 h following spray application, 25 C (time course)) | Ethylene production (cotton cotyledons; 500 ppm, 48 h following spray application, 25 C (time course)) | Percent Fruit Set (Babygold #5 peach) | Gummosis (in words) (Babygold #5 peaches; Babygold #5 peaches, Table 11 study) | Scaffold Gummosis (0 = no gummosis to 5 = severe gummosis) (Babygold #5 peaches; rate not given, 10 mm fruitlet timing, scale 0-5) |
| --- | --- | --- | --- | --- | --- | --- | --- | --- | --- | --- | --- | --- |
| CC1=CC(=O)CC(C)(C)[C@@]1(O)/C=C/C(C)=C\C(=O)O [ABA, abscisic acid, reference compound] | 80% | 69% | – | – | – | – | – | – | – | – | – | – |
| O=P(O)(O)CCCl [Ethephon, 2-chloroethylphosphonic acid, reference compound] | – | – | 41.0 nl/g leaf weight/h incubated | 133.1 nl/g leaf weight/h incubated | 153.4 nl/g leaf weight/h incubated | 102.5 nl/g leaf weight/h incubated | 106.0 nl/g leaf weight/h incubated | 90.8 nl/g leaf weight/h incubated | 58.5 nl/g leaf weight/h incubated | 8.4% | substantially increased gummosis | 4.7 |
